# Test results: patent US8993574B2, “Pyrrole antifungal agents” (F2G Ltd, priority 2008, dated 2015)
# Tests used:
# Type in all cases: cell-based
# Aspergillus niger [1] = experiment: MIC, YAG medium; details: Aspergillus niger, 24 h at 35° C, MIC banded into grades, read-out: MIC grade, A. niger
# Description: (§1) Between 1 and 5 mgs of compound were accurately weighed out into a sterile Eppendorf tube. The compound was dissolved in DMSO to give a solution containing 5 mg/mL. Tubes were stored at −20° C. until required.
# (§2) On the day of testing thawed solutions were vortex mixed to ensure homogeneity. 30 μL of solution was removed and added to 570 μL of sterile water in a separate sterile Eppendorf. The thoroughly mixed solution was used to prepare a series of doubling dilutions in water, in a deep well plate. Thirteen replicate plates were prepared using a Minitrak by aspirating 20 μL from each well into eleven clear polystyrene 96 well plates.
# (§3) Spores of Aspergillus spp. (Aspergillus fumigatus [two strains], Aspergillus terreus [two strains], Aspergillus niger and Aspergillus flavus) were harvested from cultures grown on Sabarauds agar for 5 days, and resuspended in PBS/Tween 80 to approx 1×10^7 cfu/mL. Each organism suspension was diluted in YAG medium (1% glucose, 1% ammonium chloride and 0.5% yeast extract) to 0.5−2×10^4 cfu/mL. 80 μL of an organism suspension was added to each well of the plate containing drug dilutions.
# (§4) This produced MIC plates with a drug range 50-0.05 mg/L and organism inocula of 1−2×10^4 cfu/mL for Aspergillus spp. All plates were incubated for 24 h at 35° C. Growth was assessed by monitoring the optical density at 485 nm for each well. The MIC of a compound is the lowest drug concentration that inhibits growth of an organism by >70% compared with a drug free control. MICs are recorded as mg/L. In cases where the MIC of an organism is […] mg/L the MIC is repeated using a concentration range of 0.5-0.0005 mg/L.
# (§5) The following organisms were tested: Aspergillus flavus, Aspergillus fumigatus AF293 and AF210, Aspergillus niger, Aspergillus terreus AT4 and AT49, Candida albicans, Candida glabrata, Candida krusei, Candida parapsilosis and Candida tropicalis.
# Aspergillus terreus AT49 [2] = experiment: MIC, YAG medium; details: Aspergillus terreus, 24 h at 35° C, MIC banded into grades, read-out: MIC grade, A. terreus 49
# Description: as §1, §2, §3, §4, §5
# [3] = system: Aspergillus fumigatus AF210; experiment: MIC, YAG medium; details: Aspergillus fumigatus, 24 h at 35° C, MIC banded into grades, read-out: MIC grade, A. fumigatus 210
# Description: as §1, §2, §3, §4, §5
# Aspergillus terreus AT4 [4] = experiment: MIC, YAG medium; details: Aspergillus terreus, 24 h at 35° C, MIC banded into grades, read-out: MIC grade, A. terreus
# Description: as §1, §2, §3, §4, §5
# Aspergillus flavus [5] = experiment: MIC, YAG medium; details: Aspergillus flavus, 24 h, 24 h at 35° C, MIC banded into grades, read-out: MIC grade, A. flavus
# Description: as §1, §2, §3, §4, §5
# [6] = system: Aspergillus fumigatus AF293; experiment: MIC, YAG medium; details: Aspergillus fumigatus, 24 h at 35° C, MIC banded into grades, read-out: MIC grade, A. fumigatus
# Description: as §1, §2, §3, §4, §5
# Aspergillus niger [7] = experiment: MIC, RPMI medium; details: Aspergillus niger, MIC banded into grades, read-out: MIC grade, A. niger
# Description: as §1, §2
# (§6) Assays were also performed in RPMI medium for both Aspergillus spp. (strains described above) and Candida spp. (Candida albicans, Candida glabrata, Candida krusei, Candida parapsilosis and Candida tropicalis). To perform MIC tests in this medium, dilutions of compounds are prepared in microtitre plates as described above. Fungal strains to be tested are grown and harvested in an identical manner to that described above, and each organism suspension was diluted in RPMI medium, containing 2% glucose and 0.135 M MOPS buffer (pH 7.0) to 0.5-2×10^4 cfu/mL, rather than in YAG medium. 80 μL of an organism suspension was added to each well of the plate containing drug dilutions.
# (§7) This produced MIC plates with a drug range 50-0.05 mg/L and organism inocula of 1−2×10^4 cfu/mL. All plates were incubated for 24-48 h at 35° C. Growth was assessed by monitoring the optical density at 485 nm for each well. The MIC of a compound is the lowest drug concentration that inhibits growth of an organism by >80% compared with a drug free control.
# as §5
# Aspergillus terreus AT49 [8] = experiment: MIC, RPMI medium; details: Aspergillus terreus, AT49, MIC banded into grades, read-out: MIC grade, A. terreus 49
# Description: as §1, §2, §6, §7, §5
# [9] = system: Aspergillus fumigatus AF210; experiment: MIC, RPMI medium; details: Aspergillus fumigatus, AF210, MIC banded into grades, read-out: MIC grade, A. fumigatus 210
# Description: as §1, §2, §6, §7, §5
# Aspergillus terreus AT4 [10] = experiment: MIC, RPMI medium; details: Aspergillus terreus, AT4, MIC banded into grades, read-out: MIC grade, A. terreus
# Description: as §1, §2, §6, §7, §5
# Aspergillus flavus [11] = experiment: MIC, RPMI medium; details: Aspergillus flavus, MIC banded into grades, read-out: MIC grade, A. flavus
# Description: as §1, §2, §6, §7, §5
# [12] = system: Aspergillus fumigatus AF293; experiment: MIC, RPMI medium; details: Aspergillus fumigatus, AF293, MIC banded into grades, read-out: MIC grade, A. fumigatus
# Description: as §1, §2, §6, §7, §5
smiles,measurement,setting,value
"COCCCn1c(C)cc(-c2ccccc2)c1C(=O)C(=O)Nc1ccc(N2CCN(c3cc(C)cc(C)n3)CC2)cc1 [Example 28, N-{4-[4-(4,6-Dimethyl-pyridin-2-yl)-piperazin-1-yl]-phenyl}-2-[1-(3-methoxy-propyl)-5-methyl-3-phenyl-1H-pyrrol-2-yl]-2-oxo-acetamide]",MIC,Aspergillus niger [1],< 1 mg/L
same,MIC,Aspergillus terreus AT49 [2],< 1 mg/L
same,MIC,[3],< 1 mg/L
same,MIC,Aspergillus terreus AT4 [4],< 1 mg/L
same,MIC,Aspergillus flavus [5],1 to 10 mg/L
same,MIC,[6],< 1 mg/L
same,MIC,Aspergillus niger [7],< 1 mg/L
same,MIC,Aspergillus terreus AT49 [8],1 to 10 mg/L
same,MIC,[9],< 1 mg/L
same,MIC,Aspergillus terreus AT4 [10],1 to 10 mg/L
same,MIC,Aspergillus flavus [11],1 to 10 mg/L
same,MIC,[12],< 1 mg/L
"COCCn1c(C)cc(-c2ccccc2)c1C(=O)C(=O)Nc1cccc2ncccc12 [Example 29, 2-[1-(2-Methoxy-ethyl)-5-methyl-3-phenyl-1H-pyrrol-2-yl]-2-oxo-N-quinolin-5-yl-acetamide]",MIC,Aspergillus niger [1],> 10 mg/L
same,MIC,Aspergillus terreus AT49 [2],> 10 mg/L
same,MIC,[3],> 10 mg/L
same,MIC,Aspergillus terreus AT4 [4],> 10 mg/L
same,MIC,Aspergillus flavus [5],> 10 mg/L
same,MIC,[6],> 10 mg/L
same,MIC,Aspergillus niger [7],> 10 mg/L
same,MIC,Aspergillus terreus AT49 [8],> 10 mg/L
same,MIC,[9],> 10 mg/L
same,MIC,Aspergillus terreus AT4 [10],> 10 mg/L
same,MIC,Aspergillus flavus [11],> 10 mg/L
same,MIC,[12],> 10 mg/L
"COCCn1c(C)cc(-c2ccccc2)c1C(=O)C(=O)Nc1cccc2cnccc12 [Example 30, N-Isoquinolin-5-yl-2-[1-(2-methoxy-ethyl)-5-methyl-3-phenyl-1H-pyrrol-2-yl]-2-oxo-acetamide]",MIC,Aspergillus niger [1],> 10 mg/L
same,MIC,Aspergillus terreus AT49 [2],1 to 10 mg/L
same,MIC,[3],1 to 10 mg/L
same,MIC,Aspergillus terreus AT4 [4],1 to 10 mg/L
same,MIC,Aspergillus flavus [5],1 to 10 mg/L
same,MIC,[6],1 to 10 mg/L
same,MIC,Aspergillus niger [7],> 10 mg/L
same,MIC,Aspergillus terreus AT49 [8],> 10 mg/L
same,MIC,[9],> 10 mg/L
same,MIC,Aspergillus terreus AT4 [10],> 10 mg/L
same,MIC,Aspergillus flavus [11],> 10 mg/L
same,MIC,[12],> 10 mg/L
"Cc1cc(-c2ccccc2)c(C(=O)C(=O)Nc2cccc3cccnc23)n1C [Example 31, 2-(1,5-Dimethyl-3-phenyl-1H-pyrrol-2-yl)-2-oxo-N-quinolin-8-yl-acetamide]",MIC,Aspergillus niger [1],1 to 10 mg/L
same,MIC,Aspergillus terreus AT49 [2],< 1 mg/L
same,MIC,[3],1 to 10 mg/L
same,MIC,Aspergillus terreus AT4 [4],< 1 mg/L
same,MIC,Aspergillus flavus [5],< 1 mg/L
same,MIC,[6],1 to 10 mg/L
same,MIC,Aspergillus niger [7],1 to 10 mg/L
same,MIC,Aspergillus terreus AT49 [8],< 1 mg/L
same,MIC,[9],1 to 10 mg/L
same,MIC,Aspergillus terreus AT4 [10],< 1 mg/L
same,MIC,Aspergillus flavus [11],1 to 10 mg/L
same,MIC,[12],1 to 10 mg/L
"Cc1cc(-c2ccccc2)c(C(=O)C(=O)Nc2cccc3ncccc23)n1C [Example 32, 2-(1,5-Dimethyl-3-phenyl-1H-pyrrol-2-yl)-2-oxo-N-quinolin-5-yl-acetamide]",MIC,Aspergillus niger [1],1 to 10 mg/L
same,MIC,Aspergillus terreus AT49 [2],< 1 mg/L
same,MIC,[3],1 to 10 mg/L
same,MIC,Aspergillus terreus AT4 [4],< 1 mg/L
same,MIC,Aspergillus flavus [5],< 1 mg/L
same,MIC,[6],1 to 10 mg/L
same,MIC,Aspergillus niger [7],1 to 10 mg/L
same,MIC,Aspergillus terreus AT49 [8],1 to 10 mg/L
same,MIC,[9],> 10 mg/L
same,MIC,Aspergillus terreus AT4 [10],1 to 10 mg/L
same,MIC,Aspergillus flavus [11],1 to 10 mg/L
same,MIC,[12],> 10 mg/L
"Cc1cc(-c2ccccc2)c(C(=O)C(=O)Nc2ccncc2)n1C [Example 33, 2-(1,5-Dimethyl-3-phenyl-1H-pyrrol-2-yl)-2-oxo-N-pyridin-4-yl-acetamide]",MIC,Aspergillus niger [1],> 10 mg/L
same,MIC,Aspergillus terreus AT49 [2],1 to 10 mg/L
same,MIC,[3],> 10 mg/L
same,MIC,Aspergillus terreus AT4 [4],> 10 mg/L
same,MIC,Aspergillus flavus [5],> 10 mg/L
same,MIC,[6],> 10 mg/L
same,MIC,Aspergillus niger [7],> 10 mg/L
same,MIC,Aspergillus terreus AT49 [8],> 10 mg/L
same,MIC,[9],> 10 mg/L
same,MIC,Aspergillus terreus AT4 [10],> 10 mg/L
same,MIC,Aspergillus flavus [11],> 10 mg/L
same,MIC,[12],> 10 mg/L
